Measurements: patent US12213959B2, “Use of 3-O-sulfamoyloxy-7β-methyl-d-homo-6-oxaestra-1,3,5(10),8(9)-tetraen-17a-one to treat breast cancer” (priority 2018, dated 2025)
Values joined by “and” are separate entries in the source; they are usually repeats but may differ in a detail not shown here. Identical values can stand only once.

Columns and labels:
[1] = Acute oral toxicity, OECD 423 test; format: in vivo; conditions: for Body weight of individual mice: in g (unit assumed)
Experimental: 12 female mice were used in the experiment.
The dosage form for the administration was prepared ex tempore.
No deaths were detected either.
Further the observations were made once per day.
The medicament was administered in 2 steps with a break of 3 hours in a volume of 0.1 ml per 10 g of a body weight per step at the concentration of […], because the suspension in oil is thicker at higher concentrations and precludes the medicament to be administered through a gavage. […] Regardless of the group the width of the palpebral fissure of the animals was almost unchanged during the entire observation period. No pathological discharges from the eyes were detected. The nose was pink, moderately moist without pathological discharges. The fur of all mice was neat and shiny without bald spots. A 1% decrease of the animals body weight was registered on Day 2 and a 6% weight decrease on Day 7 from the initial weight (Table 3).

[2] = system: Normal human dermal fibroblasts (HDF); test: Proliferative activity of normal human skin fibroblasts (negative control); format: cell-based; conditions: 20 μg/ml
Experimental: (§1) The study analysis was carried out on an passaged MCF-7 human cells culture culture (breast adenocarcinoma). Normal human dermal fibroblasts (HDF) of early passages were used as a negative control.
(§2) The cells were cultivated in Carrel vials in DMEM/F12 medium (Biolot) with 1.0% of antibiotic-free fetal bovine embryonic serum (Biolot) added in the 5% CO2 atmosphere, at 37° C.
(§3) The cells were seeded on Carrel vials at 50×10^4 cells per flask. To study the proliferative activity of the cells under conditions of sulfatase inhibition, 24 hours after seeding the culture medium […], and then these tumor cell lines were incubated for various periods of time (24 to 72 hrs). The inhibitor was dissolved in DMSO. […] To exclude the cytotoxic effect of DMSO, a control sample comprising DMSO without sulfatase inhibitor was prepared.
(§4) To exclude nonspecific detrimental effects of the compounds, normal human skin fibroblasts were used. Then the cells were detached with the versene-trypsin solution (Biolot), plated onto Carrel vials containing a fresh complete culture medium. The cells were counted when untreated control cells reached the maximum cell density per unit of surface area of a culture flask (monolayer), and their number was set as 100%. The proliferative activity of all of the studied cell cultures exposed to sulfatase inhibitors was determined in triplicate.

[3] = system: inoculated human tumour of triple-negative breast cancer; test: Animal models with inoculated human triple-negative breast cancer tumour; conditions: in vivo
[4] = system: MCF-7 human cells culture (breast adenocarcinoma); test: Proliferative activity of MCF-7 cells; format: cell-based; conditions: 20 μg/ml
Experimental: as §1, §2, §3, §4

[5] = 300 mg/kg, Day 1 (before administration)
[6] = 2000 mg/kg, Day 1 (before administration)

With `C[C@H]1Oc2cc(OS(N)(=O)=O)ccc2C2=C1[C@@H]1CCCC(=O)[C@@]1(C)CC2` [medicament, 3-O-sulfamoyloxy-7β-methyl-O-homo-6-oxaestra-1,3,5(10),8(9)-tetraen] the “visual signs of intoxication” value ([1]; 300 mg/kg i.g., entire observation period) was “None of the animals exhibited visual signs of intoxication”, the Average body weight [1, 5] was 27.4 g and the “Body weight of individual mice” value [1, 5] was 26.4 and 29.6 and 26.0 and 27.0 and 28.0 and 27.5. The Average body weight ([1]; 300 mg/kg, Day 2) was 27.1 g, the “Average body weight, % from baseline” value ([1]; 300 mg/kg, Day 2) was −1% and the “average body weight decrease” value ([1]; 300 mg/kg, Day 2) was 1%. The “Body weight of individual mice” value ([1]; 300 mg/kg, Day 2) was 26.8 and 24.2 and 26.5 and 25.2 and 27.3 and 27.6, the Average body weight ([1]; 300 mg/kg, Day 7) was 27.6 g and the “Average body weight, % from baseline” value ([1]; 300 mg/kg, Day 7) was 1%. The “Body weight of individual mice” value ([1]; 300 mg/kg, Day 7) was 27.0 and 29.4 and 27.4 and 25.6 and 28.2 and 28.0, the Average body weight ([1]; 300 mg/kg, Day 14) was 28.1 g and the “Average body weight, % from baseline” value ([1]; 300 mg/kg, Day 14) was 2%. The “Body weight of individual mice” value ([1]; 300 mg/kg, Day 14) was 27.0 and 29.8 and 29.3 and 26.0 and 27.9 and 28.4, the “clinical signs of intoxication” value ([1]; 2000 mg/kg i.g.) was “No clinical signs of intoxication were observed” and the Average body weight [1, 6] was 26.2 g. For the same molecule, the “Body weight of individual mice” value [1, 6] was 28.4 and 25.0 and 26.6 and 24.0 and 26.7 and 26.4, the Average body weight ([1]; 2000 mg/kg, Day 2) was 26.1 g and the “Average body weight, % from baseline” value ([1]; 2000 mg/kg, Day 2) was −1%. The “decrease of body weight from the initial weight” value ([1]; 2000 mg/kg, Day 2) was 1%, the “Body weight of individual mice” value ([1]; 2000 mg/kg, Day 2) was 27.9 and 25.5 and 26.5 and 25.2 and 27.3 and 27.0 and the Average body weight ([1]; 2000 mg/kg, Day 7) was 24.7 g. For the same molecule, the “Average body weight, % from baseline” value ([1]; 2000 mg/kg, Day 7) was −6%, the “decrease of body weight from the initial weight” value ([1]; 2000 mg/kg, Day 7) was 6% and the “Body weight of individual mice” value ([1]; 2000 mg/kg, Day 7) was 24.7 and 24.5 and 25.1 and 25.6 and 28.2 and 25.7. The Average body weight ([1]; 2000 mg/kg, Day 14) was 26.3 g, the “Body weight of individual mice” value ([1]; 2000 mg/kg, Day 14) was 28.3 and 24.9 and 26.4 and 26.0 and 27.9 and 27.0 and the “macroscopic changes of internal organs at autopsy” value ([1]; Day 15) was “no changes of the internal organs were detected”. The hazard category ([1]; OECD 423) was 5th or unclassified category and 5th or non-classified category, the hazard category ([1]; OECD 423, listed as anti-cancer agent) was 5th hazard category and the LD50 at 14 days ([1]; female, FVB transgenic for HER-2/neu, mouse, in vivo, po, oral (i.g.), mice, OECD 423) was at least 5000 mg/kg. For the same molecule, the LD50 ([1]; oral (i.g.), mice, OECD 423, listed as anti-cancer agent) was over 5000 mg/kg, the “growth of human skin fibroblasts” value [2] was “does not influence the growth” and the “action compared with Tamoxifen and Letrozole” value [3] was “better action than that of the clinically used Tamoxifen and an aromatase inhibitor Letrozole”. For the same molecule, the “proliferation of MCF-7 tumour cells” value [4] was “completely blocks”.
